From ChEMBL document CHEMBL1147899, “Raman, FT-IR, NMR spectroscopic data and antimicrobial activity of bis[micro2-(benzimidazol-2-yl)-2-ethanethiolato-N,S,S-chloro-palladium(II)] dimer, [(micro2-CH2CH2NHNCC6H4)PdCl]2.C2H5OH complex” (2007)
In brackets after ≈: the same amount, converted by molar mass.

Experiments:
Type in all cases: functional
[1] = tested on: Listeria monocytogenes; test: Antibacterial activity against Listeria monocytogenes ATCC 15313 after 24 hrs by disk diffusion method
[2] = tested on: Hanseniaspora guilliermondii; test: Antifungal activity against Hanseniaspora guilliermondii DSM 3432 after 48 hrs by dilution method; conditions: DSM 3432, 48 h
[3] = tested on: Rhodotorula mucilaginosa; test: Antifungal activity against Rhodotorula rubra DSM 70403 after 48 hrs by dilution method; conditions: DSM 70403, 48 h
[4] = tested on: Staphylococcus aureus; test: Antibacterial activity against Staphylococcus aureus ATCC 6538 after 24 hrs by disk diffusion method
[5] = tested on: Hanseniaspora guilliermondii; test: Antifungal activity against Hanseniaspora guilliermondii DSM 3432 after 72 hrs by disk diffusion method
[6] = tested on: Klebsiella pneumoniae; test: Antibacterial activity against Klebsiella pneumoniae UC57 after 24 hrs by disk diffusion method
[7] = tested on: Debaryomyces hansenii; test: Antifungal activity against Debaryomyces hansenii DSM 70238 after 72 hrs by disk diffusion method
[8] = tested on: Bacillus cereus; test: Antibacterial activity against Bacillus cereus ATCC 7064 after 24 hrs by disk diffusion method
[9] = tested on: Micrococcus luteus; test: Antibacterial activity against Micrococcus luteus La 2971 after 24 hrs by disk diffusion method
[10] = tested on: Candida albicans; test: Antifungal activity against Candida albicans ATCC 10231 after 72 hrs by disk diffusion method
[11] = tested on: Kluyveromyces marxianus; test: Antifungal activity against Kluyveromyces fragilis NRRL 2415 after 72 hrs by disk diffusion method
[12] = tested on: Pseudomonas aeruginosa; test: Antibacterial activity against Pseudomonas aeruginosa ATCC 27853 after 24 hrs by dilution method; conditions: ATCC 27853, 24 h
[13] = tested on: Proteus vulgaris; test: Antibacterial activity against Proteus vulgaris ATCC 8427 after 24 hrs by disk diffusion method
[14] = tested on: Klebsiella pneumoniae; test: Antibacterial activity against Klebsiella pneumoniae UC57 after 24 hrs by dilution method
[15] = tested on: Micrococcus luteus; test: Antibacterial activity against Micrococcus luteus La 2971 after 24 hrs by dilution method
[16] = tested on: Escherichia coli; test: Antibacterial activity against Escherichia coli ATCC 11230 after 24 hrs by dilution method; conditions: ATCC 11230, 24 h
[17] = tested on: Kluyveromyces marxianus; test: Antifungal activity against Kluyveromyces fragilis NRRL 2415 after 48 hrs by dilution method; conditions: NRRL 2415, 48 h
[18] = tested on: Debaryomyces hansenii; test: Antifungal activity against Debaryomyces hansenii DSM 70238 after 48 hrs by dilution method; conditions: DSM 70238, 48 h
[19] = tested on: Listeria monocytogenes; test: Antibacterial activity against Listeria monocytogenes ATCC 15313 after 24 hrs by dilution method; conditions: ATCC 15313, 24 h
[20] = tested on: Escherichia coli; test: Antibacterial activity against Escherichia coli ATCC 11230 after 24 hrs by disk diffusion method
[21] = tested on: Bacillus cereus; test: Antibacterial activity against Bacillus cereus ATCC 7064 after 24 hrs by dilution method; conditions: ATCC 7064, 24 h
[22] = tested on: Rhodotorula mucilaginosa; test: Antifungal activity against Rhodotorula rubra DSM 70403 after 72 hrs by disk diffusion method
[23] = tested on: Mycolicibacterium smegmatis; test: Antibacterial activity against Mycobacterium smegmatis CCM 2067 after 24 hrs by dilution method; conditions: CCM 2067, 24 h
[24] = tested on: Staphylococcus aureus; test: Antibacterial activity against Staphylococcus aureus ATCC 6538 after 24 hrs by dilution method; conditions: ATCC 6538, 24 h
[25] = tested on: Candida albicans; test: Antifungal activity against Candida albicans ATCC 10231 after 48 hrs by dilution method; conditions: ATCC 10231, 48 h
[26] = tested on: Proteus vulgaris; test: Antibacterial activity against Proteus vulgaris ATCC 8427 by after 24 hrs dilution method; conditions: ATCC 8427, 24 h
[27] = tested on: Pseudomonas aeruginosa; test: Antibacterial activity against Pseudomonas aeruginosa ATCC 27853 after 24 hrs by disk diffusion method
[28] = tested on: Mycolicibacterium smegmatis; test: Antibacterial activity against Mycobacterium smegmatis CCM 2067 after 24 hrs by disk diffusion method
[29] = tested on: Mycolicibacterium smegmatis; test: Antibacterial activity against Mycobacterium smegmatis CCM 2067 at 10 ug after 24 hrs by disk diffusion method; conditions: CCM 2067, 24 h, read-out: IZ
[30] = tested on: Listeria monocytogenes; test: Antibacterial activity against Listeria monocytogenes ATCC 15313 at 10 ug after 24 hrs by disk diffusion method; conditions: ATCC 15313, 24 h, read-out: IZ
[31] = tested on: Klebsiella pneumoniae; test: Antibacterial activity against Klebsiella pneumoniae UC57 at 10 ug after 24 hrs by disk diffusion method; conditions: read-out: IZ
[32] = tested on: Bacillus cereus; test: Antibacterial activity against Bacillus cereus ATCC 7064 at 10 ug after 24 hrs by disk diffusion method; conditions: ATCC 7064, 24 h, read-out: IZ
[33] = tested on: Micrococcus luteus; test: Antibacterial activity against Micrococcus luteus La 2971 at 10 ug by disk diffusion method; conditions: read-out: IZ
[34] = tested on: Pseudomonas aeruginosa; test: Antibacterial activity against Pseudomonas aeruginosa ATCC 27853 at 10 ug after 24 hrs by disk diffusion method; conditions: ATCC 27853, 24 h, read-out: IZ
[35] = tested on: Staphylococcus aureus; test: Antibacterial activity against Staphylococcus aureus ATCC 6538 at 10 ug after 24 hrs by disk diffusion method; conditions: ATCC 6538, 24 h, read-out: IZ
[36] = tested on: Escherichia coli; test: Antibacterial activity against Escherichia coli ATCC 11230 at 10 ug after 24 hrs by disk diffusion method; conditions: ATCC 11230, 24 h, read-out: IZ
[37] = tested on: Proteus vulgaris; test: Antibacterial activity against Proteus vulgaris ATCC 8427 at 10 ug after 24 hrs by disk diffusion method; conditions: ATCC 8427, 24 h, read-out: IZ
[38] = tested on: Listeria monocytogenes; test: Antibacterial activity against Listeria monocytogenes ATCC 15313 at 30 ug after 24 hrs by disk diffusion method; conditions: ATCC 15313, 24 h, read-out: IZ
[39] = tested on: Micrococcus luteus; test: Antibacterial activity against Micrococcus luteus La 2971 at 30 ug by disk diffusion method; conditions: read-out: IZ
[40] = tested on: Staphylococcus aureus; test: Antibacterial activity against Staphylococcus aureus ATCC 6538 at 30 ug after 24 hrs by disk diffusion method; conditions: ATCC 6538, 24 h, read-out: IZ
[41] = tested on: Bacillus cereus; test: Antibacterial activity against Bacillus cereus ATCC 7064 at 30 ug after 24 hrs by disk diffusion method; conditions: ATCC 7064, 24 h, read-out: IZ
[42] = tested on: Klebsiella pneumoniae; test: Antibacterial activity against Klebsiella pneumoniae UC57 at 30 ug after 24 hrs by disk diffusion method; conditions: read-out: IZ
[43] = tested on: Mycolicibacterium smegmatis; test: Antibacterial activity against Mycobacterium smegmatis CCM 2067 at 30 ug after 24 hrs by disk diffusion method; conditions: CCM 2067, 24 h, read-out: IZ
[44] = tested on: Proteus vulgaris; test: Antibacterial activity against Proteus vulgaris ATCC 8427 at 30 ug after 24 hrs by disk diffusion method; conditions: ATCC 8427, 24 h, read-out: IZ
[45] = tested on: Escherichia coli; test: Antibacterial activity against Escherichia coli ATCC 11230 at 30 ug after 24 hrs by disk diffusion method; conditions: ATCC 11230, 24 h, read-out: IZ
[46] = tested on: Debaryomyces hansenii; test: Antifungal activity against Debaryomyces hansenii DSM 70238 at 20 ug after 72 hrs by disk diffusion method; conditions: DSM 70238, 72 h, read-out: IZ
[47] = tested on: Hanseniaspora guilliermondii; test: Antifungal activity against Hanseniaspora guilliermondii DSM 3432 at 20 ug after 72 hrs by disk diffusion method; conditions: DSM 3432, 72 h, read-out: IZ
[48] = tested on: Kluyveromyces marxianus; test: Antifungal activity against Kluyveromyces fragilis NRRL 2415 at 20 ug after 72 hrs by disk diffusion method; conditions: NRRL 2415, 72 h, read-out: IZ
[49] = tested on: Rhodotorula mucilaginosa; test: Antifungal activity against Rhodotorula rubra DSM 70403 at 20 ug after 72 hrs by disk diffusion method; conditions: DSM 70403, 72 h, read-out: IZ
[50] = tested on: Candida albicans; test: Antifungal activity against Candida albicans ATCC 10231 at 20 ug after 72 hrs by disk diffusion method; conditions: ATCC 10231, 72 h, read-out: IZ

MIC [2] [µg/mL] | MIC [3] [µg/mL] | MIC [12] [µg/mL] | MIC [14] [µg/mL] | MIC [15] [µg/mL] | MIC [16] [µg/mL] | MIC [17] [µg/mL] | MIC [18] [µg/mL] | MIC [19] [µg/mL] | Compound | inhibition zone (IZ) [1] [mm] | inhibition zone (IZ) [4] [mm] | inhibition zone (IZ) [5] [mm] | inhibition zone (IZ) [6] [mm] | inhibition zone (IZ) [7] [mm] | inhibition zone (IZ) [8] [mm] | inhibition zone (IZ) [9] [mm] | inhibition zone (IZ) [10] [mm] | inhibition zone (IZ) [11] [mm] | inhibition zone (IZ) [13] [mm] | inhibition zone (IZ) [20] [mm] | other results
12.5 (≈ 35.3 µM) | 25 (≈ 70.5 µM) | 50 (≈ 141 µM) | 50 (≈ 141 µM) | 25 (≈ 70.5 µM) | 50 (≈ 141 µM) | 6.25 (≈ 17.6 µM) | 25 (≈ 70.5 µM) | 12.5 (≈ 35.3 µM) | c1ccc2[nH]c(CCSSCCc3nc4ccccc4[nH]3)nc2c1 | 13 | 14 | 12 | 11 | 11 | 10 | 12 | 14 | 15 | 14 | 12 | MIC [21]: 100 µg/mL (≈ 282 µM); inhibition zone (IZ) [22]: 12 mm; MIC [23]: 12.5 µg/mL (≈ 35.3 µM); MIC [24]: 12.5 µg/mL (≈ 35.3 µM); MIC [25]: 12.5 µg/mL (≈ 35.3 µM); MIC [26]: 12.5 µg/mL (≈ 35.3 µM); inhibition zone (IZ) [27]: 11 mm; inhibition zone (IZ) [28]: 13 mm
6.25 | 12.5 | 25 | 25 | 12.5 | 12.5 | 3.12 | 12.5 | 12.5 | Cl.c1ccc2[nH]c(CCSSCCc3nc4ccccc4[nH]3)nc2c1 | 12 | 16 | 16 | 12 | 14 | 12 | 14 | 17 | 18 | 16 | 14 | MIC [21]: 50 µg/mL; inhibition zone (IZ) [22]: 15 mm; MIC [23]: 6.25 µg/mL; MIC [24]: 12.5 µg/mL; MIC [25]: 6.25 µg/mL; MIC [26]: 6.25 µg/mL; inhibition zone (IZ) [27]: 12 mm; inhibition zone (IZ) [28]: 16 mm
 |  |  |  |  |  |  |  |  | CC1(C)S[C@@H]2[C@H](NC(=O)[C@H](N)c3ccccc3)C(=O)N2[C@H]1C(=O)O [AMPICILLIN] |  |  |  |  |  |  |  |  |  |  |  | zone of inhibition at 10 µg/disc [29]: 21 mm; zone of inhibition at 10 µg/disc [30]: 12 mm; zone of inhibition at 10 µg/disc [31]: 14 mm; zone of inhibition at 10 µg/disc [32]: 12 mm; zone of inhibition at 10 µg/disc [33]: 32 mm; zone of inhibition at 10 µg/disc [34]: 10 mm; zone of inhibition at 10 µg/disc [35]: 16 mm; zone of inhibition at 10 µg/disc [36]: 12 mm; zone of inhibition at 10 µg/disc [37]: 16 mm
 |  |  |  |  |  |  |  |  | CO/N=C(\C(=O)N[C@@H]1C(=O)N2C(C(=O)O)=C(COC(C)=O)CS[C@H]12)c1csc(N)n1 [CEFOTAXIME] |  |  |  |  |  |  |  |  |  |  |  | zone of inhibition at 30 µg/disc [38]: 16 mm; zone of inhibition at 30 µg/disc [39]: 32 mm; zone of inhibition at 30 µg/disc [40]: 12 mm; zone of inhibition at 30 µg/disc [41]: 14 mm; zone of inhibition at 30 µg/disc [42]: 13 mm; zone of inhibition at 30 µg/disc [43]: 11 mm; zone of inhibition at 30 µg/disc [44]: 18 mm; zone of inhibition at 30 µg/disc [45]: 10 mm
 |  |  |  |  |  |  |  |  | CC(=O)N1CCN(c2ccc(OCC3COC(Cn4ccnc4)(c4ccc(Cl)cc4Cl)O3)cc2)CC1 (stereo not drawn) [KETOCONAZOLE] |  |  |  |  |  |  |  |  |  |  |  | zone of inhibition at 20 µg/disc [46]: 14 mm; zone of inhibition at 20 µg/disc [47]: 24 mm; zone of inhibition at 20 µg/disc [48]: 16 mm; zone of inhibition at 20 µg/disc [49]: 22 mm; zone of inhibition at 20 µg/disc [50]: 21 mm
